The values that follow come from US6777408B1, “Pyrido-thieno-diazepines method for the production thereof and pharmaceutical compositions containing said pyrido-thieno-diazepines” (Societe de Conseils de Recherches et d'Applications …, priority 1999, dated 2004).

In turn, `COc1ccc(NC(=S)N2CCc3c(sc4c3C(c3ccccc3Cl)=NCC(=S)N4CCc3ccccc3)C2)c([N+](=O)[O-])c1` returned a melting point of 152 °C. As to `COc1ccc(NC(=S)N2CCc3c(sc4c3C(c3ccccc3Cl)=NC(OC(=O)CCCCCCN)C(=O)N4CCc3ccccc3)C2)c([N+](=O)[O-])c1` (stereo not drawn) [Example 8, 3-(7-amino-1-oxo-heptyloxy)-5-(2-chlorophenyl)-1,2,3,6,7,9-hexahydro-N-(4-methoxy-2-nitrophenyl)-2-oxo-1-(2-phenylethyl)-8H-pyrido[4′,3′:4,5]thieno[2,3-e]-1,4-diazepine-8-carbothioamide], the melting point fell in the range of 90 to 95 °C. Consider `O=C1CNC(c2ccccc2Cl)c2c(sc3c2CCNC3)N1CCc1ccccc1` (stereo not drawn) [Example 13, 5-(2-chlorophenyl)-1,3,4,5,6,7,8,9-octahydro-1-(2-phenylethyl)-2H-pyrido[4′,3′:4,5]thieno[2,3-e]-1,4-diazepine-2-one], for which the melting point is 128 to 130 °C.
